Measured values from patent EP0310585B1, “Octapeptide inhibitors of myristoylating enzymes” (WASHINGTON UNIVERSITY, priority 1987, dated 1989).
Where no end group is shown, it is not given here.

Experiments:
[1] = biological target: T1, N-myristoylglycylpeptide synthetase (Saccharomyces cerevisiae, UniProt P14743); assay: Assay for N-myristoylglycylpeptide synthetase activity, crude yeast membrane fractions (Table I); format: biochemical; details: Test 3: + 1 mM peptide, 18 µM peptide substrate GlyAsnAlaAlaAlaAlaArgArg, control 26.7
T1 construct: A protease-deficient strain of Saccharomyces cerevisiae, JR153 [Hemmings et al., Proc. Natl. Acad. Sci. USA 78, 435-439 (1981)], was used as a source of N-myristoylglycylpeptide synthetase; endogenous in cells; host or cells: S. cerevisiae strain JR153, crude membrane pellet of cell lysate
T1 sequence (P14743 1-455): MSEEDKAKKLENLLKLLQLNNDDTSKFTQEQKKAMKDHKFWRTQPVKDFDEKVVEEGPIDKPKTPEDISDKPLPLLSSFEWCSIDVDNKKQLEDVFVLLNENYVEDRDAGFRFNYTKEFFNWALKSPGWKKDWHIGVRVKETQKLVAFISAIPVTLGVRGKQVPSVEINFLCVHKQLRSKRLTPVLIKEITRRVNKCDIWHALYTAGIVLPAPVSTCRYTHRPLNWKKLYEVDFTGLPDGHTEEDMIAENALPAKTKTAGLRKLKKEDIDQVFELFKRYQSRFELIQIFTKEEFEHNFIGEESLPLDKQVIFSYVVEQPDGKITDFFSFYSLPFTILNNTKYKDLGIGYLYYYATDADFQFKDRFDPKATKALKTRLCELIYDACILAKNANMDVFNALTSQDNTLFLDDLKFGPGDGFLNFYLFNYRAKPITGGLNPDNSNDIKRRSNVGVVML
Protocol: Preparation of yeast extract for the assay of N-myristoylglycylpeptide synthetase activity. Yeast cultures were grown as described above to O.D. 660 nm of 1 to 3. Cells from 40 ml of culture were collected by centrifugation at 4°C at 7600 x g for 10 minutes. The supernatant was decanted, the cell pellet was resuspended by pipetting into 1 ml of cold 10 mM Tris, pH 7.4, transferred to a 1.5 ml conical polypropylene centrifuge tube, and the cells were then repelleted at 4°C at 7600 x g for 10 minutes. […] Protein was determined by the method of Peterson, Anal. Biochem. 83, 346-356 (1977).
Assay for N-myristoylglycylpeptide synthetase activity. […] Typically, 40% to 50% of the [³H]fatty acid was converted to its CoA ester by this procedure as measured by determining the radioactivity remaining in the reaction after acidification with 6 N HCl to pH 2.0 and extraction 6 times with 5 volumes of heptane, a modification of the method of Hosaka et al., Meth. […] (Under these conditions, 95% of synthetic [³H]myristoylpeptide or [³H]palmitoylpeptide remined soluble when added to an assay mixture.) Fifty microliters of the supernatant were mixed with 75 µl methanol and 75 µl of HPLC buffer A, and analyzed by reverse phase HPLC on a 3.9 mm by 30 cm Waters µ-Bondapak C₁₈ column using the same HPLC buffers described above, starting at 35% acetonitrile and eluting with a 1% per minute acetonitrile gradient. […]

[2] = biological target: T2, N-myristoylglycylpeptide synthetase (N-myristoyl transferase or NMT) (Saccharomyces cerevisiae, UniProt P14743); assay: Octapeptide substrate specificity / kinetic characterization with partially purified yeast myristoylating enzyme (Table II); format: biochemical
T2 construct: endogenous in cells; host or cells: S. cerevisiae strain JR153
T2 sequence (P14743 1-455): T1 sequence (P14743 1-455)
Protocol: The synthetic octapeptides I and II were initially used to identify a unique enzymatic activity which transfers myristic acid to the amino terminal glycine of this and other peptides. […] The enzyme activity was determined in an in vitro assay which measures the transfer of [³H]-myristic acid to the acceptor peptide, […]. The transfer reaction is dependent on adenosine triphosphate (ATP) and coenzyme A (CoA). The enzymatic product was then identified by high performance liquid chromatography (HPLC) by co-elution with a chemically synthesized myristoyl peptide standard. […] Both contained M-myristoyl glycine.
Assay for N-myristoylglycylpeptide synthetase activity. [³H]Fatty acyl CoA was synthesized enzymatically and added to the incubation as follows. […] Typically, 40% to 50% of the [³H]fatty acid was converted to its CoA ester by this procedure as measured by determining the radioactivity remaining in the reaction after acidification with 6 N HCl to pH 2.0 and extraction 6 times with 5 volumes of heptane, a modification of the method of Hosaka et al., Meth. […] One minute fractions were collected and the radioactivity in each fraction determined by liquid scintillation counting. […]

| Substance | Rate of Myristoylpeptide Synthesis [1] | Ki [2] |
| --- | --- | --- |
| GSSKSPKDPS [a decapeptide containing N-terminal glycine] | 27.4 DPM x 10⁻³ /10 min | – |
| GNAAKARR-NH2 [Gly-Asn-Ala-Ala-Lys-Ala-Arg-Arg] | – | 50 µM |
| GPRP | 25.6 DPM x 10⁻³ /10 min | – |
| GNANSARR-NH2 [Gly-Asn-Ala-Asn-Ser-Ala-Arg-Arg] | – | 0.3 µM |
